The supplement of paper PMC10307832

Legend:
Experiment in all cases: relative viability (nuclei count vs DMSO), 5 days (fraction); higher = more cells survive
Salubrinal + Crizotinib = compound: O=C(/C=C/c1ccccc1)NC(NC(=S)Nc1cccc2cccnc12)C(Cl)(Cl)Cl [Salubrinal] + C[C@@H](Oc1cc(-c2cnn(C3CCNCC3)c2)cnc1N)c1c(Cl)ccc(F)c1Cl [Crizotinib] (partner 1 µM)
Outline: (§1)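 Relative viability was taken as the ratio of nuclei in treated wells to nuclei in vehicle wells. Lung cancer cell lines in 1536-well plates received compounds by pin tool one day after seeding, either one drug alone or a fixed anchor-drug dose plus five library-drug doses (not always all listed) in √10 steps. Nuclei were counted on 4× images after 5 days of treatment, and values are medians of duplicate plates.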

[1] = compound: Cc1ccc2nc(NCCN)c3ncc(C)n3c2c1 + Cc1nc(Nc2ncc(C(=O)Nc3c(C)cccc3Cl)s2)cc(N2CCN(CCO)CC2)n1 [Dasatinib] (partner 0.075 µM)
Outline: as §1

Salubrinal + Foretinib = compound: O=C(/C=C/c1ccccc1)NC(NC(=S)Nc1cccc2cccnc12)C(Cl)(Cl)Cl [Salubrinal] + COc1cc2c(Oc3ccc(NC(=O)C4(C(=O)Nc5ccc(F)cc5)CC4)cc3F)ccnc2cc1OCCCN1CCOCC1 [Foretinib] (partner 0.25 µM)
Outline: as §1

[2] = compound: Cc1ccc2nc(NCCN)c3ncc(C)n3c2c1 + Cc1nc(NC(=O)N2CCC[C@H]2C(N)=O)sc1-c1ccnc(C(C)(C)C(F)(F)F)c1 [Alpelisib] (partner 2 µM)
Outline: as §1

Cell Line	relative viability (Salubrinal + Crizotinib; first compound 0.08 µM)	relative viability (Salubrinal + Crizotinib; first compound 0.253 µM)	relative viability (Salubrinal + Crizotinib; first compound 0.8 µM)	relative viability (Salubrinal + Crizotinib; first compound 2.53 µM)	relative viability (Salubrinal + Crizotinib; first compound 8 µM)	relative viability ([1]; first compound 0.04 µM)	relative viability ([1]; first compound 0.1265 µM)	relative viability ([1]; first compound 0.4 µM)	relative viability ([1]; first compound 1.265 µM)	relative viability ([1]; first compound 4 µM)	relative viability (Salubrinal + Foretinib; first compound 0.08 µM)	relative viability (Salubrinal + Foretinib; first compound 0.8 µM)	relative viability (Salubrinal + Foretinib; first compound 2.53 µM)	relative viability (Salubrinal + Foretinib; first compound 8 µM)	relative viability ([2]; first compound 0.04 µM)	relative viability ([2]; first compound 0.1265 µM)	relative viability ([2]; first compound 0.4 µM)	relative viability ([2]; first compound 1.265 µM)	relative viability ([2]; first compound 4 µM)	relative viability (Salubrinal + Foretinib; first compound 0.253 µM)
201T	0.997	1	1.05	1.01	1.02	0.56	0.501	0.587	0.524	0.483	1.36	1.17	1.04	1.12	1.03	1.01	1.02	1.05	1.02	
A549	0.864	0.491	0.902	0.702	0.695						1.01	0.932	0.861	0.892	0.978	0.741	0.722	1.01	0.611	0.753
A-427	0.896	0.899	1.05	0.85	0.895	0.682	0.654	0.644	0.632	0.628	0.993	1.18	1.02	1.17	1.09	1.13	1.05	1.07	1.14	1.32
ABC-1	1.23	0.919	1.22	1.25	1.02	0.613	0.573	0.501	0.57	0.594	1.15	0.972	0.993	0.886	1.15	1.27	1.18	1.15	0.742	1.05
BEN	1.02	0.734	0.996	0.858	0.852	0.329	0.291	0.27	0.363	0.374	0.505	1.01	0.627	0.643	1.06	0.787	1.09	0.807	1.19	0.867
CAL-12T	0.661	0.484	0.806	0.48	0.446	0.34	0.342	0.373	0.387	0.294	1.14	1.09	0.978	0.991	1.17	1.11	1.3	1.25	0.992	1.07
COR-L23	0.749	0.775	0.699	0.563	0.492	0.525	0.514	0.518	0.46	0.403	1.1	1.13	1.01	0.889	0.904	0.663	0.916	0.809	0.495	0.932
COR-L 105	0.962	0.624	0.76	0.772	0.689	0.446	0.385	0.416	0.402	0.343	0.981	1.22	0.892	1.02	0.977	1.04	1.27	1.13	0.75	1.14
Calu-6	0.949	0.644	0.898	0.821	0.728						0.979	0.907	0.806	0.803	1.05	0.923	1.01	1.04	0.719	0.865
ChaGo-K-1	1.25	0.927	1.44	1.1	0.929	0.551	0.659	0.659	0.504	0.566	0.989	0.892	0.869	0.802						0.956
EBC-1	0.207	0.214	0.22	0.211	0.18						0.112	0.12	0.102	0.0993	1.04	0.734	0.795	0.643	0.617	0.0951
EKVX	1.16	0.811	0.971	0.974	1.07	0.523	0.548	0.466	0.37	0.46	0.755	0.82	0.714	0.792	0.962	0.856	0.83	0.808	0.778	0.776
EMC-BAC-2	0.749	0.676	0.811	0.721	0.76	0.339	0.335	0.345	0.276	0.307	0.975	1.21	1.03	0.98	0.748	0.722	0.72	0.793	0.719	1
EPLC-272H	0.976	0.839	0.887	1.03	0.949	0.414	0.411	0.489	0.406	0.382	0.853	0.65	0.64	0.519	1.07	0.937	0.896	1.06	0.96	0.655
